Laboratory results taken from US11230525B2, “Organic sulfur compound, method for preparing same, and pharmaceutical composition for preventing or treating cancer or an inflammatory disease, containing same as active ingredient” (SOOKMYUNG WOMENS UNIVERSITY INDUSTRY-ACADEMIC COOPERATION …, priority 2016, dated 2022).

Columns and labels:
[1] = test system: prostate cancer cell line (PC-3); experiment: Cancer proliferation inhibitory activity (SRB, GI50), PC-3; assay type: cell-based; details: Homo sapiens, 48 hours
Method in brief: (§1)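 Cells grown in RPMI 1640 with 10% FBS at 37 °C, 5% CO2, then exposed to compound (0.1–10 μM) or 0.1% DMSO for 48 h. After TCA fixation and sulforhodamine B staining, bound dye was solubilised and read at OD540. GI50 derived from the resulting curves.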

[2] = test system: PC-3 cells, human prostate cancer cells; experiment: Anticancer activity in prostate cancer xenograft model; assay type: in vivo, mice; details: for tumor size / cancer proliferation (FIGS. 2, 3): 50 mg/kg (SAHA 100 mg/kg) once a day for 16 days, compared with the non-treated group
Method: Particularly, 9×10^6 PC-3 cells, human prostate cancer cells, were inoculated subcutaneously to the right side of female BALB/c nu/nu mice at 5 weeks of age (Nara Biotech, Seoul, Republic of Korea).
(§2) When the tumor size reached 40-60 mm^3, the mice were randomly grouped (4 mice per group), which were the non-treated group (10% dimethylacetamide, 10% tween 80 and 80% distilled water), the groups treated with the compounds of comparative examples 1 and 2 (Ajoene, 50 mg/kg), the groups treated with the compounds of examples 18 and 32 (50 mg/kg), and the group treated with the positive control SAHA (Vorinostat, 100 mg/kg). The treatment was performed once a day for 16 days in total. During the treatment, the tumor size was measured with a vernier caliper, followed by evaluation according to the following formula: length (mm)×width (mm)×height (mm)/2. The weights were measured regularly.
(§3) Upon completion of the treatment (16 days later), the mice were sacrificed and the tumor weights were measured. All the experiments were performed according to the experiment protocol approved by Institutional Animal care and Use Committee (IACUC), Korea Research Institute of Bioscience and Biotechnology (KRIBB).

[3] = biological target: HDAC 1 (Homo sapiens, UniProt Q13547); experiment: HDAC enzyme fluorescence assay, HDAC 1; assay type: biochemical; details: recombinant HDAC enzyme, Boc-Lys(acetyl)-AMC
Method: Particularly, HDAC enzyme analysis was performed based on a uniform fluorescence emission assay. First, the compounds of examples of the present invention or comparative example 1 were diluted at different concentrations, which were treated to the analysis buffer containing 25 mM HEPES (pH 8.0), 137 mM NaCl, 1 mM MgCl2 and 2.7 mM KCL, followed by culture of the recombinant HDAC enzyme. 10 minutes later, Boc-Lys(acetyl)-AMC, the fluorescence inducing substrate, was added thereto, followed by further culture at 37° C. At this time, the concentration of the fluorescence inducing substrate and the culture time were adjusted according to the isotypes of the HDAC enzyme. The reaction was terminated by treating trypsin at room temperature for 20 minutes. The fluorescence intensity was measured using a fluorescence analyzer at an excitation wavelength of 380 nm and an emission wavelength of 460 nm, respectively. The inhibition rate was calculated from the measured fluorescence intensity of each well with comparing to that of the control well. IC50 of the compound was calculated by analyzing the dose-reaction inhibition curve.

[4] = test system: gastric cancer cell line (NUGC-3); experiment: Cancer proliferation inhibitory activity (SRB, GI50), NUGC-3; assay type: cell-based; details: Homo sapiens, 48 hours
Method in brief: as §1

[5] = Body weight of mice in prostate cancer xenograft model; assay type: in vivo; details: 50 mg/kg (SAHA 100 mg/kg) once a day for 16 days
Method: as §2, §3

[6] = test system: breast cancer cell line (MDA-MB-231); experiment: Cancer proliferation inhibitory activity (SRB, GI50), MDA-MB-231; assay type: cell-based; details: Homo sapiens, 48 hours
Method in brief: as §1

[7] = test system: lung cancer cell line (NCl-H23); experiment: Cancer proliferation inhibitory activity (SRB, GI50), NCI-H23; assay type: cell-based; details: Homo sapiens, 48 hours
Method in brief: as §1

[8] = test system: colorectal cancer cell line (HCT-15); experiment: Cancer proliferation inhibitory activity (SRB, GI50), HCT-15; assay type: cell-based; details: Homo sapiens, 48 hours
Method in brief: as §1

Chain of HDAC 1 (Q13547 whole entry, species assumed): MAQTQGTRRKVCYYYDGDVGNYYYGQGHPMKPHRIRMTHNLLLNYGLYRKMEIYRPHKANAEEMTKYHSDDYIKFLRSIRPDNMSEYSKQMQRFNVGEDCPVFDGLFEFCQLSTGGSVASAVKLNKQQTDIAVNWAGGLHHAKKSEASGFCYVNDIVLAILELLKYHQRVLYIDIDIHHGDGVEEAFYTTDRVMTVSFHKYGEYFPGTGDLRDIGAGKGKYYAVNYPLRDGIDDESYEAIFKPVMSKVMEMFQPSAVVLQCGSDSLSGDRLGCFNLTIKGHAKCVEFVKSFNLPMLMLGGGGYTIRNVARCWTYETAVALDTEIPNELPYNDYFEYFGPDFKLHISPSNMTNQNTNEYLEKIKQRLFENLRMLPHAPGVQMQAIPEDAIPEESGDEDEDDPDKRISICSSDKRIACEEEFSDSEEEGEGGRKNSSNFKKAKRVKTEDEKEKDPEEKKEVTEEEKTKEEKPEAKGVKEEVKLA

Row | Structure (SMILES) | GI50 [1] | tumor size / cancer proliferation (FIGS. 2, 3) [2] | tumor weight (FIG. 4) ([2]; 50 mg/kg once a day, tumor extracted after 16 days) | IC50 [3] | GI50 [4] | changes in weight of mice / visible toxicity (FIG. 1) [5] | GI50 [6] | GI50 [7] | GI50 [8]
1 | CCCSS/C=C\C[S+]([O-])c1cccc(OC)c1 (centres unmarked) [Example 18, (Z)-1-(3-(3-methoxyphenylsulfinyl)prop-1-enyl)-2-propyldisulfane] | 1920 nM | inhibit cancer proliferation similarly to the positive control SAHA | lighter than the tumor weight in the non-treated group | 3520 nM | 1710 nM | only normal weight increases were observed | 2430 nM | 1590 nM | 1340 nM
2 | COc1ccc([S+]([O-])C/C=C\SSCc2ccccc2)cc1 (centres unmarked) [Example 32, (Z)-1-benzyl-2-(3-(4-methoxyphenylsulfinyl)prop-1-enyl)disulfane] | 3190 nM | cancer proliferation was inhibited | – | 4550 nM | 3820 nM | only normal weight increases were observed | 5880 nM | 4370 nM | 1550 nM
